Test results as given in patent US4000280A, “Pharmaceutical compositions containing an amphetamine derivative for the alleviation of anxiety or treatment of depression” (Astra Lakemedel Aktiebolag, priority 1975, dated 1976).

How the values were obtained:
[1] = system: mice; test: Motor activity in mice (exploratory activity in locomotion cage); assay type: in vivo; parameters: key to Motor Activity: +: increase; -: decrease; 0: no effect; conditions: for central stimulation (in words): motor activity in mice; for Motor Activity: recorded for 10 minutes 1 hour after administration, compared to control groups, i.p.
Procedure: The lack of euphoric effects, that is lack of central stimulatory activity, is tested by measuring the motor activity in mice after administration of the test substance.
The exploratory activity of mice was recorded in a locomotion cage in which the movements were counted each time the animals cross-circuits an electrical current in the bottom plate. The activity was recorded for 10 minutes 1 hour after the administration of the drug. The animals were tested individually. Groups of six mice were used and the mice were only used once. The activity was expressed in percent of the activity of control groups ran simultaneously. The compounds were administered in at least four doses. The increase (+) or decrease (-) of the activity compared to control groups was determined from log dose response curves.

[2] = system: isolated mice; test: Aggressive behavior in isolated male mice (antiaggressive activity); assay type: in vivo; conditions: Mus musculus, ip, 5 min; i.p.; dose which reduces the aggressiveness score by 50%; 5 min test; read-out: Antiaggressive behaviour in mice ED50
Procedure: Potential anxiolytic activity is tested by measuring the antiaggressivity in isolated mice after administration of the test substance. In this test not amphetamine but Valium -- a well-known anxiolytic substance -- is used as a reference.
Male mice kept isolated for 3 weeks or longer develop an aggressive behavior when caged together. The method used follows that of Valzelli et al. (Europ. J. Pharmacol. 2, 144, 1967), with the exception that two mice were tested on each other. The aggressiveness was scored during a 5 min test according to the following schedule:
0 the animals show no interest in each other except occasional nosing
25 frequent vigorous nosing and tail rattling, the animals assume a fighting position and occasionally attack each other -- no more than 3-4 times in the 5 min period
50 tail rattling, powerful attacks -- no more than 10 times in the test period
75 the animals follow their partners, attacking and biting for most of the time
100 attacks over the entire period.
The animals were used for several experiments but with intervals of at least 1 week. Groups of 10 mice were used.
ED50 is the dose which reduces the aggressiveness score by 50%.

[3] = system: 5-HTP response; test: 5-HTP response potentiation test (potentiation of behavioral syndrome after dl-5-HTP); assay type: in vivo, mice; conditions: Mus musculus, ip; dl-5-HTP 90 mg/kg i.v.; at least five doses; probit analysis (Litchfield and Wilcoxon)
Excerpt: It is not possible by experimental means to induce depressions in laboratory animals. In order to evaluate a possible anti depressive effect on new substances biochemical-pharmacological test methods must be resorted to. One such method, which seems to give a good indication of the potential anti depressive effects of the test substances, is described in Europ. J. Pharmacol. 17, 107, 1972. This method involves the measurement of the potentiation of the syndromes produced by 5-hydroxytryptophan (5-HTP) in a laboratory animal.
Inhibition of the uptake of 5-HT potentiates the effects of administered 5-hydroxytryptophan (5-HTP) probably by increasing the amount of 5-HT at the receptor. Three mice are given the test drugs 1 hour (or 4, 24 hours) before dl-5-HTP, 90 mg/kg i.v. 5-HTP alone gives only a weak behavioral syndrome but in pretreated mice there is seen a characteristic behavioral syndrome, which comes within 5 minutes: tremor, lordosis, abduction of the hind-legs, head-twitches.
The absence or presence of respective syndrome is scored in groups of 10 mice. The compound was administered in at least five doses and the quantal responses were analysed by probit analysis and ED50 determined according to the method of Litchfield and Wilcoxon.

Row | SMILES | Motor Activity [1] | further results
1 | CC(N)Cc1ccccc1 (stereo not shown) [Amphetamine] |  | central stimulation (in words) [1]: pronounced
2 | CC(N)Cc1ccc2c(c1)CCCN2C.Cl.Cl (stereo not shown) [H H CH3 (CH2)3 H CH3, 6-(2-Aminopropyl)-1-methyl-1,2,3,4-tetrahydroquinoline dihydrochloride] |  | ED50 [2]: > 5 mg/kg; ED50 [3]: 1.5 mg/kg
3 | CN(C)c1ccc(CC(C)(C)N)cc1.Cl.Cl [H H CH3 CH3 CH3 CH3, 4-Dimethylamino-α, α-dimethylphenethylamine dihydrochloride] | 0 | 
4 | CC(N)Cc1ccc(N(C)C)cc1Cl.Cl.Cl (stereo not drawn) [H 2-Cl CH3 CH3 H CH3, 2-Chloro-4dimethylamino-α-methylphenethylamine dihydrochloride] | - | 
5 | CCC(N)Cc1ccc(N(C)C)cc1Cl (stereo not shown) [H 2-Cl CH3 CH3 H C2 H5] | 0 | 
6 | CC(N)Cc1c(Cl)cc(N(C)C)cc1Cl.Cl.Cl (stereo not drawn) [2-Cl 6-Cl CH3 CH3 H CH3, 2,6-Dichloro-4-dimethylamino-α-methylphenethylamine dihydrochloride] | - | 
7 | CC(N)Cc1ccc(Cl)cc1 (stereo not shown) [P-Chloroamphetamine, reference compound] |  | central stimulation (in words) [1]: pronounced
8 | CCN(CC)c1ccc(CC(C)N)cc1 (stereo not shown) [H H C2 H5 C2 H5 H CH3] | - | 
9 | Cc1cc(N(C)C)ccc1CC(C)N.Cl.Cl (stereo not drawn) [H 2-CH 3 CH3 CH3 H CH3, 2-Methyl-4-dimethylamino-α-methylphenethylamine dihydrochloride] | - | 
